Laboratory results: ChEMBL document CHEMBL1126980, “New, potent anthelmintic and acaricidal agents: 4-deoxy-4-thio-substituted avermectin derivatives” (Bioorg Med Chem Lett, 1993)
Values after ≈ are worked out from the molar mass of the structure shown.

Legend:
Artemia salina = experiment: Tested in vitro for the biological efficacy using Artemia salina (brine shrimp) immobilization assay; format: functional
Caenorhabditis elegans = experiment: Tested in vitro for the biological efficacy using Caenorhabditis elegans binding assay; format: functional, organism-based
Ovis aries [1] = experiment: Tested for the anthelmintic efficacy against Oesphagostomum columbianum at 0.1 mg/kg; range is 91-100%; format: functional
Ovis aries [2] = experiment: Tested for the anthelmintic efficacy against Cooperia curticei at 0.1 mg/kg; range is 51-75%; format: functional
Ovis aries [3] = experiment: Tested for the anthelmintic efficacy against Ostertagia circumcincta at 0.1 mg/kg; range is 91-100%; format: functional
Ovis aries [4] = experiment: Tested for the anthelmintic efficacy against Trichostrongylus axei at 0.1 mg/kg; range is 91-100%; format: functional
Ovis aries [5] = experiment: Tested for the anthelmintic efficacy against Trichostrongylus colubriformis at 0.1 mg/kg; range is 76-90%; format: functional
Ovis aries [6] = experiment: Tested for anthelmintic efficacy against Haemonchus contortus at 0.1 mg/kg; range is 91-100%; format: functional
Tetranychus urticae = experiment: Tested for acaricidal efficacy using a Tetranychus urticae (two-spotted spider mite, TSSM) contact assay; format: functional; design: concentration or dose not given beside the values
[7] = test system: Trichostrongylus colubriformis; experiment: Tested in vivo for the biological efficacy using Trichostrongylus colubriformis gerbil assay; format: functional
Ovis aries [8] = experiment: Tested for the anthelmintic efficacy against Cooperia curticei at 0.1 mg/kg; format: functional
Ovis aries [9] = experiment: Tested for the anthelmintic efficacy against Trichostrongylus axei at 0.1 mg/kg; range is 76-90%; format: functional
Ovis aries [10] = experiment: Tested for the anthelmintic efficacy against Trichostrongylus colubriformis at 0.1 mg/kg; range is 91-100%; format: functional
Ovis aries [11] = experiment: Tested for the anthelmintic efficacy against Ostertagia circumcincta at 0.1 mg/kg; range is 76-90%; format: functional
Ovis aries [12] = experiment: Tested for the anthelmintic efficacy against Cooperia curticei at 0.1 mg/kg; range is 91-100%; format: functional
Ovis aries [13] = experiment: Tested for the anthelmintic efficacy against Trichostrongylus colubriformis at 0.1 mg/kg; range is 51-75%; format: functional
Ovis aries [14] = experiment: Tested for the anthelmintic efficacy against Ostertagia circumcincta at 0.1 mg/kg; format: functional
Ovis aries [15] = experiment: Tested for the anthelmintic efficacy against Trichostrongylus axei at 0.1 mg/kg; range is 51-75%; format: functional
Ovis aries [16] = experiment: Tested for the anthelmintic efficacy against Ostertagia circumcincta at 0.1 mg/kg; range is 51-75%; format: functional
Ovis aries [17] = experiment: Tested for the anthelmintic efficacy against Cooperia curticei at 0.1 mg/kg; range is 76-90%; format: functional
Ovis aries [18] = experiment: Tested for the anthelmintic efficacy against Cooperia curticei at 0.15 mg/kg; range is 91-100%; format: functional
Ovis aries [19] = experiment: Tested for the anthelmintic efficacy against Oesphagostomum columbianum at 0.15 mg/kg; format: functional
Ovis aries [20] = experiment: Tested for the anthelmintic efficacy against Ostertagia circumcincta at 0.15 mg/kg; range is 76-90%; format: functional
Ovis aries [21] = experiment: Tested for the anthelmintic efficacy against Trichostrongylus axei at 0.15 mg/kg; range is 91-100%; format: functional
Ovis aries [22] = experiment: Tested for the anthelmintic efficacy against Trichostrongylus colubriformis at 0.15 mg/kg; range is 91-100%; format: functional
Ovis aries [23] = experiment: Tested for anthelmintic efficacy against Haemonchus contortus at 0.15 mg/kg; range is 76-90%; format: functional

CCC(C)[C@H]1O[C@]2(C=C[C@@H]1C)C[C@@H]1C[C@@H](C/C=C(\C)[C@@H](O[C@H]3C[C@H](OC)[C@@H](O[C@H]4C[C@H](OC)[C@H](S(=O)(=O)CCO)[C@H](C)O4)[C@H](C)O3)[C@@H](C)/C=C/C=C3\CO[C@@H]4[C@H](O)C(C)=C[C@@H](C(=O)O1)[C@]34O)O2 (some centres not stated)
IC100 (Artemia salina): 870 ng/mL | IC50 (Caenorhabditis elegans): 0.363 ng/mL (≈ 0.376 nM) | Reduction (Ovis aries [1]): 91% | Reduction (Ovis aries [2]): 51% | Reduction (Ovis aries [3]): 91% | Reduction (Ovis aries [4]): 91% | Reduction (Ovis aries [5]): 76% | Reduction (Ovis aries [6]): 91% | Mortality (Tetranychus urticae): 34% | ED85 [7]: 0.063 mg/kg

CCC(C)[C@H]1O[C@]2(C=C[C@@H]1C)C[C@@H]1C[C@@H](C/C=C(\C)[C@@H](O[C@H]3C[C@H](OC)[C@@H](O[C@H]4C[C@H](OC)[C@H](SCCOC(C)=O)[C@H](C)O4)[C@H](C)O3)[C@@H](C)/C=C/C=C3\CO[C@@H]4[C@H](O)C(C)=C[C@@H](C(=O)O1)[C@]34O)O2 (some centres not stated)
IC100 (Artemia salina): 1730 ng/mL | IC50 (Caenorhabditis elegans): 0.525 ng/mL (≈ 0.538 nM) | Reduction (Ovis aries [1]): 91% | Reduction (Ovis aries [8]): <50% | Reduction (Ovis aries [3]): 91% | Reduction (Ovis aries [9]): 76% | Reduction (Ovis aries [10]): 91% | Reduction (Ovis aries [6]): 91% | Mortality (Tetranychus urticae): 68% | ED85 [7]: 0.125 mg/kg

CCC(C)[C@H]1O[C@]2(C=C[C@@H]1C)C[C@@H]1C[C@@H](C/C=C(\C)[C@@H](O[C@H]3C[C@H](OC)[C@@H](O[C@H]4C[C@H](OC)[C@@H](S(C)(=O)=O)[C@H](C)O4)[C@H](C)O3)[C@@H](C)/C=C/C=C3\CO[C@@H]4[C@H](O)C(C)=C[C@@H](C(=O)O1)[C@]34O)O2 (some centres not stated)
IC100 (Artemia salina): 430 ng/mL | IC50 (Caenorhabditis elegans): 0.098 ng/mL (≈ 0.105 nM) | Reduction (Ovis aries [1]): 91% | Reduction (Ovis aries [11]): 76% | Reduction (Ovis aries [12]): 91% | Reduction (Ovis aries [4]): 91% | Reduction (Ovis aries [10]): 91% | Reduction (Ovis aries [6]): 91% | Mortality (Tetranychus urticae): 85% | ED85 [7]: 0.125 mg/kg

CCC(C)[C@H]1O[C@]2(C=C[C@@H]1C)C[C@@H]1C[C@@H](C/C=C(\C)[C@@H](O[C@H]3C[C@H](OC)[C@H](SCCNC(C)=O)[C@H](C)O3)[C@@H](C)/C=C/C=C3\CO[C@@H]4[C@H](O)C(C)=C[C@@H](C(=O)O1)[C@]34O)O2 (some centres not stated)
IC100 (Artemia salina): 430 ng/mL | Reduction (Ovis aries [1]): 91% | Reduction (Ovis aries [8]): <50% | Reduction (Ovis aries [3]): 91% | Reduction (Ovis aries [4]): 91% | Reduction (Ovis aries [10]): 91% | Reduction (Ovis aries [6]): 91% | ED85 [7]: 0.063 mg/kg

CCC(C)[C@H]1O[C@]2(C=C[C@@H]1C)C[C@@H]1C[C@@H](C/C=C(\C)[C@@H](O[C@H]3C[C@H](OC)[C@@H](O[C@H]4C[C@H](OC)[C@H](SCCNC(C)=O)[C@H](C)O4)[C@H](C)O3)[C@@H](C)/C=C/C=C3\CO[C@@H]4[C@H](O)C(C)=C[C@@H](C(=O)O1)[C@]34O)O2 (some centres not stated)
IC100 (Artemia salina): 870 ng/mL | IC50 (Caenorhabditis elegans): 0.127 ng/mL (≈ 0.13 nM) | Reduction (Ovis aries [1]): 91% | Reduction (Ovis aries [12]): 91% | Reduction (Ovis aries [3]): 91% | Reduction (Ovis aries [4]): 91% | Reduction (Ovis aries [13]): 51% | Reduction (Ovis aries [6]): 91% | Mortality (Tetranychus urticae): 29% | ED85 [7]: 0.031 mg/kg

CCC(C)[C@H]1O[C@]2(C=C[C@@H]1C)C[C@@H]1C[C@@H](C/C=C(\C)[C@@H](O[C@H]3C[C@H](OC)[C@@H](O[C@H]4C[C@H](OC)[C@H](SCCO)[C@H](C)O4)[C@H](C)O3)[C@@H](C)/C=C/C=C3\CO[C@@H]4[C@H](O)C(C)=C[C@@H](C(=O)O1)[C@]34O)O2 (some centres not stated)
IC100 (Artemia salina): 650 ng/mL | IC50 (Caenorhabditis elegans): 0.784 ng/mL (≈ 0.84 nM) | Reduction (Ovis aries [1]): 91% | Reduction (Ovis aries [8]): <50% | Reduction (Ovis aries [3]): 91% | Reduction (Ovis aries [4]): 91% | Reduction (Ovis aries [5]): 76% | Reduction (Ovis aries [6]): 91% | Mortality (Tetranychus urticae): 55% | ED85 [7]: 0.063 mg/kg

CCC(C)[C@H]1O[C@]2(C=C[C@@H]1C)C[C@@H]1C[C@@H](C/C=C(\C)[C@@H](O[C@H]3C[C@H](OC)[C@@H](O[C@H]4C[C@H](OC)[C@@H](SCCO)[C@H](C)O4)[C@H](C)O3)[C@@H](C)/C=C/C=C3\CO[C@@H]4[C@H](O)C(C)=C[C@@H](C(=O)O1)[C@]34O)O2 (some centres not stated)
IC100 (Artemia salina): 870 ng/mL | IC50 (Caenorhabditis elegans): 0.091 ng/mL (≈ 0.0975 nM) | Reduction (Ovis aries [1]): 91% | Reduction (Ovis aries [14]): <50% | Reduction (Ovis aries [8]): <50% | Reduction (Ovis aries [5]): 76% | Reduction (Ovis aries [6]): 91% | Mortality (Tetranychus urticae): 70% | ED85 [7]: 0.063 mg/kg | Reduction (Ovis aries [15]): 51%

CCC(C)[C@H]1O[C@]2(C=C[C@@H]1C)C[C@@H]1C[C@@H](C/C=C(\C)[C@@H](O[C@H]3C[C@H](OC)[C@@H](O[C@H]4C[C@H](OC)[C@@H](SC)[C@H](C)O4)[C@H](C)O3)[C@@H](C)/C=C/C=C3\CO[C@@H]4[C@H](O)C(C)=C[C@@H](C(=O)O1)[C@]34O)O2 (some centres not stated)
IC100 (Artemia salina): 3470 ng/mL | IC50 (Caenorhabditis elegans): 0.226 ng/mL (≈ 0.25 nM) | Reduction (Ovis aries [1]): 91% | Reduction (Ovis aries [16]): 51% | Reduction (Ovis aries [17]): 76% | Reduction (Ovis aries [9]): 76% | Reduction (Ovis aries [13]): 51% | Reduction (Ovis aries [6]): 91% | Mortality (Tetranychus urticae): 98% | ED85 [7]: 0.25 mg/kg

CCC(C)[C@H]1O[C@]2(C=C[C@@H]1C)C[C@@H]1C[C@@H](C/C=C(\C)[C@@H](O[C@H]3C[C@H](OC)[C@@H](O[C@H]4C[C@H](OC)[C@H](SC)[C@H](C)O4)[C@H](C)O3)[C@@H](C)/C=C/C=C3\CO[C@@H]4[C@H](O)C(C)=C[C@@H](C(=O)O1)[C@]34O)O2 (some centres not stated)
IC100 (Artemia salina): 1730 ng/mL | IC50 (Caenorhabditis elegans): 0.06 ng/mL (≈ 0.0664 nM) | Reduction (Ovis aries [1]): 91% | Reduction (Ovis aries [11]): 76% | Reduction (Ovis aries [12]): 91% | Reduction (Ovis aries [4]): 91% | Reduction (Ovis aries [5]): 76% | Reduction (Ovis aries [6]): 91% | Mortality (Tetranychus urticae): 92% | ED85 [7]: 0.063 mg/kg

CCC(C)[C@H]1O[C@]2(C=C[C@@H]1C)C[C@@H]1C[C@@H](C/C=C(\C)[C@@H](O[C@H]3C[C@H](OC)[C@H](S(=O)(=O)CCO)[C@H](C)O3)[C@@H](C)/C=C/C=C3\CO[C@@H]4[C@H](O)C(C)=C[C@@H](C(=O)O1)[C@]34O)O2 (some centres not stated)
IC100 (Artemia salina): 870 ng/mL | Reduction (Ovis aries [18]): 91% | Reduction (Ovis aries [19]): <50% | Reduction (Ovis aries [20]): 76% | Reduction (Ovis aries [21]): 91% | Reduction (Ovis aries [22]): 91% | Reduction (Ovis aries [23]): 76% | Mortality (Tetranychus urticae): 94% | ED85 [7]: > 0.25 mg/kg
